# Like-named read-outs stand apart in the source and are kept apart here. Ends that are not written are not given here.
# How the values were obtained:
# monocytes-macrophages [1] = assay: Carbon clearance assay, phagocytosis of monocytes-macrophages in normal mice; settings: normal Kunming mice; 0.2 mg/kg via tail vein, once a day for five days; 2 h after last dose
# [2] = Spleen index (immune organ index) in normal mice; settings: 0.2 mg/kg via tail vein, once a day for five days, 2 h after last dose
# [3] = Spleen index (immune organ index) in immunosuppressed mouse models; settings: immunosuppressed mice (dexamethasone 40 mg/kg i.p., five days); 0.2 mg/kg via tail vein, once a day for five days
# [4] = test system: Ehrlich ascites carcinoma; assay: Body weight gain and spleen index of Ehrlich ascites carcinoma mice; settings: EAC ICR mice; 0.2 mg/kg via tail vein, one day before inoculation then 7 consecutive days
# monocytes-macrophages [5] = settings: immunosuppressed mice (dexamethasone 40 mg/kg i.p., five days); 0.2 mg/kg via tail vein, once a day for five days
substance,measurement,setting,value
"RKDVY [Thymopentin, thymopentin]",Carbon clearance index K × 10^3,monocytes-macrophages [1],4.874 ± 0.582 ^
same,Spleen index (%),[2],0.642 ± 0.091%
same,Spleen index (%),[3],0.546 ± 0.097^ΔΔ %
same,Body weight gain,[4],6.190 ± 2.087 g
same,Spleen index (%),[4],0.221 ± 0.036%
same,Carbon clearance index K × 10^3,monocytes-macrophages [5],7.773 ± 1.018^ΔΔ

# From US11213555B2, “Intravenous injection for enhancing immune function” (priority 2016, dated 2022)
